In patent US12077503B2, “Substituted cyclic amides and their use as herbicides” (FMC CORPORATION, priority 2015, dated 2024):

Tests used:
Assay type in all cases: in vivo
corn (Zea mays) = assay: Test A postemergence; settings: Zea mays, post-emergence, 240 h, 125 g ai/ha, Postemergence; visual injury after approximately 10 d; 0 to 100 scale where 0 is no effect and 100 is complete control
Summary of the method: (§1)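 Treatment is preemergence as a directed soil spray after planting, or postemergence at the one- to two-leaf stage, with test chemical in a non-phytotoxic solvent mixture plus surfactant. Plants stay in the greenhouse about 10 d before visual injury scoring on a 0 to 100 scale versus untreated controls.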

[1] = system: wheat (Triticum aestivum); assay: Test A postemergence; settings: Triticum aestivum, post-emergence, 240 h, 125 g ai/ha, Postemergence; visual injury after approximately 10 d; 0 to 100 scale where 0 is no effect and 100 is complete control; read-out: Plant response rating, Wheat
Summary of the method: as §1

Kochia (Kochia scoparia) [2] = assay: Test A postemergence; settings: Bassia scoparia, post-emergence, 240 h, 125 g ai/ha, Postemergence; visual injury after approximately 10 d; 0 to 100 scale where 0 is no effect and 100 is complete control; read-out: Plant response rating, Kochia
Summary of the method: as §1

[3] = system: Galium (catchweed bedstraw, Galium aparine); assay: Test A postemergence; settings: Galium, post-emergence, 240 h, 125 g ai/ha, Postemergence; visual injury after approximately 10 d; 0 to 100 scale where 0 is no effect and 100 is complete control; read-out: Plant response rating, Galium
Summary of the method: as §1

[4] = system: giant foxtail (Setaria faberii); assay: Test A postemergence; settings: Setaria faberi, post-emergence, 240 h, 125 g ai/ha, Postemergence; visual injury after approximately 10 d; 0 to 100 scale where 0 is no effect and 100 is complete control; read-out: Plant response rating, Foxtail, Giant
Summary of the method: as §1

[5] = system: pigweed (Amaranthus retroflexus); assay: Test A postemergence; settings: Amaranthus retroflexus, post-emergence, 240 h, 125 g ai/ha, Postemergence; visual injury after approximately 10 d; 0 to 100 scale where 0 is no effect and 100 is complete control; read-out: Plant response rating, Pigweed
Summary of the method: as §1

[6] = system: barnyardgrass (Echinochloa crus-galli); assay: Test A postemergence; settings: Echinochloa crus-galli, post-emergence, 240 h, 125 g ai/ha, Postemergence; visual injury after approximately 10 d; 0 to 100 scale where 0 is no effect and 100 is complete control; read-out: Plant response rating, Barnyardgrass
Summary of the method: as §1

[7] = system: ryegrass, Italian (Italian ryegrass, Lolium multiflorum); assay: Test A postemergence; settings: Lolium multiflorum, post-emergence, 240 h, 125 g ai/ha, Postemergence; visual injury after approximately 10 d; 0 to 100 scale where 0 is no effect and 100 is complete control; read-out: Plant response rating, Ryegrass, Italian
Summary of the method: as §1

[8] = system: ragweed (common ragweed, Ambrosia elatior); assay: Test A postemergence; settings: Ambrosia artemisiifolia, post-emergence, 240 h, 125 g ai/ha, Postemergence; visual injury after approximately 10 d; 0 to 100 scale where 0 is no effect and 100 is complete control; read-out: Plant response rating, Ragweed
Summary of the method: as §1

[9] = system: blackgrass (Alopecurus myosuroides); assay: Test A postemergence; settings: Alopecurus myosuroides, post-emergence, 240 h, 125 g ai/ha, Postemergence; visual injury after approximately 10 d; 0 to 100 scale where 0 is no effect and 100 is complete control; read-out: Plant response rating, Blackgrass
Summary of the method: as §1

rice (Oryra sativa) = assay: Test B flooded paddy test; settings: Oryza sativa, Flood, 250 g ai/ha; scale of 0 to 100 where 0 is no effect and 100 is complete control; read-out: Rice plant response rating
Summary of the method: (§2)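 Rating scale 0–100 (visual, vs untreated controls) after a 13–15 d greenhouse period; application to the flood layer, 3 cm above soil and maintained; plants at 2-leaf stage when treated.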

[10] = system: ducksalad (Heteranthera limosa); assay: Test B flooded paddy test; settings: Heteranthera limosa, Flood, 250 g ai/ha; scale of 0 to 100 where 0 is no effect and 100 is complete control; read-out: Ducksalad plant response rating
Summary of the method: as §2

[11] = system: barnyardgrass (Echinochloa crus-galli); assay: Test B flooded paddy test; settings: Echinochloa crus-galli, Flood, 250 g ai/ha; scale of 0 to 100 where 0 is no effect and 100 is complete control; read-out: Barnyardgrass plant response rating
Summary of the method: as §2

[12] = system: sedge, umbrella (small-flower umbrella sedge, Cyperus difformis); assay: Test B flooded paddy test; settings: Cyperus difformis, Flood, 250 g ai/ha; scale of 0 to 100 where 0 is no effect and 100 is complete control; read-out: Sedge, Umbrella plant response rating
Summary of the method: as §2

Kochia (Kochia scoparia) [13] = assay: Test A preemergence; settings: Bassia scoparia, pre-emergence, 240 h
Summary of the method: as §1

[14] = system: giant foxtail (Setaria faberii); assay: Test A preemergence; settings: Setaria faberi, pre-emergence, 240 h
Summary of the method: as §1

[15] = system: pigweed (Amaranthus retroflexus); assay: Test A preemergence; settings: Amaranthus retroflexus, pre-emergence, 240 h
[16] = system: barnyardgrass (Echinochloa crus-galli); assay: Test A preemergence; settings: Echinochloa crus-galli, pre-emergence, 240 h
Summary of the method: as §1

[17] = system: ryegrass, Italian (Italian ryegrass, Lolium multiflorum); assay: Test A preemergence; settings: Lolium multiflorum, pre-emergence, 240 h
Summary of the method: as §1

[18] = system: ragweed (common ragweed, Ambrosia elatior); assay: Test A preemergence; settings: Ambrosia artemisiifolia, pre-emergence, 240 h
Summary of the method: as §1

CC(C)Oc1ccc([C@H]2CN(C)C(=O)[C@@H]2C(=O)Nc2ccccc2F)cc1 [Compound 952]
Corn plant response rating (crop injury, 0 = no effect, 100 = complete kill) at 125 g/ha (corn (Zea mays)): 0% | plant injury at 125 g/ha [1]: 0% | pest or weed control at 125 g/ha (Kochia (Kochia scoparia) [2]): 0% | pest or weed control at 125 g/ha [3]: 0% | pest or weed control at 125 g/ha [4]: 50% | pest or weed control at 125 g/ha [5]: 0% | pest or weed control at 125 g/ha [6]: 60% | pest or weed control at 125 g/ha [7]: 0% | pest or weed control at 125 g/ha [8]: 0% | pest or weed control at 125 g/ha [9]: 0% | pest or weed control at 250 g/ha (rice (Oryra sativa)): 0% | pest or weed control at 250 g/ha [10]: 40% | pest or weed control at 250 g/ha [11]: 0% | pest or weed control at 250 g/ha [12]: 0% | pest or weed control at 125 g/ha (Kochia (Kochia scoparia) [13]; 125 g ai/ha, Preemergence, visual injury rating after approximately 10 d, read-out: Kochia plant response rating (0 to 100 scale, 0 is no effect, 100 is complete control)): 30% | pest or weed control at 500 g/ha (Kochia (Kochia scoparia) [13]; 500 g ai/ha, preemergence, visual injury rating about 10 d after treatment, 0 to 100 scale (0 no effect, 100 complete control), read-out: Kochia plant response rating): 30% | pest or weed control at 125 g/ha ([14]; 125 g ai/ha, Preemergence, visual injury rating after approximately 10 d, read-out: Foxtail, Giant plant response rating (0 to 100 scale, 0 is no effect, 100 is complete control)): 80% | pest or weed control at 500 g/ha ([14]; 500 g ai/ha, preemergence, visual injury rating about 10 d after treatment, 0 to 100 scale (0 no effect, 100 complete control), read-out: Foxtail, Giant plant response rating): 90% | pest or weed control at 125 g/ha ([15]; 125 g ai/ha, Preemergence, visual injury rating after approximately 10 d, read-out: Pigweed plant response rating (0 to 100 scale, 0 is no effect, 100 is complete control)): 0% | pest or weed control at 500 g/ha ([15]; 500 g ai/ha, preemergence, visual injury rating about 10 d after treatment, 0 to 100 scale (0 no effect, 100 complete control), read-out: Pigweed plant response rating): 0% | pest or weed control at 125 g/ha ([16]; 125 g ai/ha, Preemergence, visual injury rating after approximately 10 d, read-out: Barnyardgrass plant response rating (0 to 100 scale, 0 is no effect, 100 is complete control)): 50% | pest or weed control at 500 g/ha ([16]; 500 g ai/ha, preemergence, visual injury rating about 10 d after treatment, 0 to 100 scale (0 no effect, 100 complete control), read-out: Barnyardgrass plant response rating): 90% | pest or weed control at 125 g/ha ([17]; 125 g ai/ha, Preemergence, visual injury rating after approximately 10 d, read-out: Ryegrass, Italian plant response rating (0 to 100 scale, 0 is no effect, 100 is complete control)): 0% | pest or weed control at 500 g/ha ([17]; 500 g ai/ha, preemergence, visual injury rating about 10 d after treatment, 0 to 100 scale (0 no effect, 100 complete control), read-out: Ryegrass, Italian plant response rating): 0% | pest or weed control at 125 g/ha ([18]; 125 g ai/ha, Preemergence, visual injury rating after approximately 10 d, read-out: Ragweed plant response rating (0 to 100 scale, 0 is no effect, 100 is complete control)): 0% | pest or weed control at 500 g/ha ([18]; 500 g ai/ha, preemergence, visual injury rating about 10 d after treatment, 0 to 100 scale (0 no effect, 100 complete control), read-out: Ragweed plant response rating): 0%
